{"source": "patent US20090068143A1", "about": "“ORALLY EFFECTIVE C[…]” (priority 2005, published 2009)", "key": {"[1]": {"tested_on": "chronic constriction induced neuropathic pain", "test": "Chronic constriction induced neuropathic pain (Von Frey filaments)", "format": "in vivo, Sprague-Dawley rats", "from_the_text": "A peripheral monopathy was induced in the right hind limb of rats following a chronic constriction of the sciatic nerve according to Bennet et al. [Bennet, G. J. & Xie, Y-K., Pain 33: 87-107, 1988]. The development of mechanical allodyna was monitored using an established behavioral test (Von Frey filaments).\nPre-surgery baseline values were ascertained as the mean of 2 pre-surgery values. Once the baseline values had been established, the animals were surgically prepared by constricting the right sciatic nerve with 4 chromic cat gut loose ligatures. On day 11 post-operation, the animals that have developed mechanical allodyna were arbitrarily allocated to the various treatment groups based on the pre-surgery values.\nThe design was randomized, performed in a masked fashion as to whether drug or vehicle is being given. The animals, male Sprague-Dawley rats (average body weight 240-290 g, Harlan, Israel), were allowed to acclimatize to the behavioral testing equipment prior to testing. […] The filaments were applied in ascending order starting with the weakest force and the withdrawal threshold for both the ipsilateral and contralateral hind paws was evaluated. […] The withdrawal threshold is defined as being the lowest force of two or more consecutive Von Frey's filaments to elicit a reflex withdrawal response (i.e. a brief paw flick) and is measured in grams."}, "acute pain": {"tested_on": "acute pain", "settings": "pretreatment, administered orally; cited from earlier work"}, "[2]": {"tested_on": "MOG induced chronic progressive EAE", "test": "MOG induced chronic-progressive EAE", "settings": "for animals that reached a clinical score of 0 (fully recovered): 13 animals per group"}, "TNF-α": {"tested_on": "TNF-α", "test": "Real-time RT-PCR gene expression in CNS of MOG induced EAE: TNF-α", "format": "in vivo, mouse", "settings": "40 mg/kg p.o., day 31; over naive animals", "method": "Total RNA is prepared using SV total RNA isolation system (Promega). The brains and spinal cords, which were removed on day 31 from five animals treated with vehicle (i.e. untreated) or 40 mg/kg p.o. of compound 18F (i.e. treated) in the MOG-induced EAE study, were homogenized in lysis buffer. The lysates were transferred to an RNA isolation column, treated with DNAse, washed and eluted according to kit instructions. RNA concentrations were determined using GeneQuant II (Pharmacia-Amersham). Complementary DNA (cDNA) was synthesized from total RNA using […] II reverse transcriptase (Life Technologies). […] Quantitative real-time RT-PCR included 1 μl of the cDNA, 300 nM of the appropriate forward and reverse primers (according to the gene monitored) and 7.5 μl of the reaction mix containing buffer, nucleotides, Taq polymerase and SYBER green (SYBER Green master mix, Applied Biosystems), in a total reaction volume of 15 μl. […] During each annealing step, the amount of the amplified product was measured by the fluorescence of the double strand DNA binding dye, SYBER Green. The cycle of threshold (CT), representing the PCR cycle at which an increase in fluorescence above a baseline signal can be first detected, was determined for each product. […] Results were expressed as fold increase of gene expression in treated or untreated animals above the naive animals. […]"}}}
{"smiles": "CCCCCCC(C)(C)c1cc(O)c([C@H]2CC(=O)C3CC2C3(C)C)c(OC(=O)/C=C/C(=O)O)c1", "note": "(single isomer, unassigned; (-)) [Compound 18F, (−)-4-{4-[1,1-Dimethylheptyl]-2-fumarate-6-hydroxy-phenyl}-6,6-dimethyl-bicyclo[3.1.1]heptan-2-one]", "values": [{"measurement": "effect on neuropathic pain", "setting": "[1]; 20 mg/kg p.o.", "result": "little effect"}, {"measurement": "effect on neuropathic pain", "setting": "[1]; 40 mg/kg p.o.", "result": "as strong as 5 mg/kg morphine administered subcutaneously"}, {"measurement": "efficacy against acute pain", "setting": "acute pain", "result": "effective against acute pain"}, {"measurement": "reduction of clinical score, first peak day 14 to 25", "setting": "[2]; 20 mg/kg p.o. daily for 19 days from day 13", "result": "about 12%"}, {"measurement": "animals that reached a clinical score of 0 (fully recovered)", "setting": "[2]; 20 mg/kg p.o.", "result": 8, "unit": "%"}, {"measurement": "reduction of clinical score, first peak day 14 to 25", "setting": "[2]; 40 mg/kg p.o. daily for 19 days from day 13", "result": 43, "unit": "%"}, {"measurement": "animals that reached a clinical score of 0 (fully recovered)", "setting": "[2]; 40 mg/kg p.o.", "result": 23, "unit": "%"}, {"measurement": "clinical score for about a week from day 36", "setting": "[2]; 60 mg/kg p.o.", "result": "about 0.2"}, {"measurement": "reduction of clinical score as compared to control, week from day 36", "setting": "[2]; 60 mg/kg p.o.", "result": 80, "unit": "%"}, {"measurement": "reduction of clinical score, first peak day 14 to 25", "setting": "[2]; 60 mg/kg p.o. daily for 19 days from day 13", "result": 44, "unit": "%"}, {"measurement": "animals that reached a clinical score of 0 (fully recovered)", "setting": "[2]; 60 mg/kg p.o.", "result": 31, "unit": "%"}, {"measurement": "clinical score below control at the end of the study", "setting": "[2]; 60 mg/kg p.o., 20 days after treatment cessation", "result": 30, "unit": "%"}, {"measurement": "clinical score at the end of the study", "setting": "[2]; 60 mg/kg p.o., 20 days after treatment cessation, control 0.95", "result": 0.65}, {"measurement": "plateau level clinical score", "setting": "[2]; 60 mg/kg p.o., control about 1.2", "result": "about 0.6"}, {"measurement": "side effects", "setting": "[2]; high doses p.o., first 10 minutes post administration, eliminated from day 4", "result": "Some minor and transient side effects were observed"}, {"measurement": "day of first full recovery", "setting": "[2]; highest dose (60 mg/kg p.o.), treatment from day 13", "result": 16, "unit": "days"}, {"measurement": "day of first full recovery", "setting": "[2]; intermediate dose (40 mg/kg p.o.)", "result": 17, "unit": "days"}, {"measurement": "day of first full recovery", "setting": "[2]; lowest dose (20 mg/kg p.o.)", "result": 22, "unit": "days"}, {"measurement": "reduction of AUC as compared to control group", "setting": "[2]; separate study, 40 mg/kg p.o.", "result": 36, "unit": "%"}, {"measurement": "AUC of clinical score", "setting": "[2]; separate study, daily from day 13, 18F 40 mg/kg p.o., COP-1 25 mg/kg s.c., IFN-β 10,000 IU per mouse s.c., control 24.14", "result": 15.47, "unit": "units"}, {"measurement": "mean group clinical score at the end of the study", "setting": "[2]; separate study, daily from day 13, 18F 40 mg/kg p.o., COP-1 25 mg/kg s.c., control above 2.4", "result": 1.25}, {"measurement": "Fold gene expression TNF-α, Brain, Treated", "setting": "TNF-α", "result": 2.5, "unit": "fold"}, {"measurement": "Fold gene expression TNF-α, Spinal Cord, Treated", "setting": "TNF-α", "result": 15, "unit": "fold"}]}
